Assay results from PubChem BioAssay (NCI).
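Each compound was tested at five concentrations against cells in 96-well plates for 48 hours. GI50: concentration for 50% inhibition of growth. TGI: concentration producing complete growth inhibition.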

Experiments:
Assay in all cases: DTP human tumour cell line panel, 48 h; in the data active means GI50 below about 0.43 µM; inactive means the rest
[1] = tested on: SK-OV-3 ovarian
[2] = tested on: SNB-75 CNS
[3] = tested on: 786-0 renal
[4] = tested on: KM12 colon
[5] = tested on: SN12C renal
[6] = tested on: M14 melanoma
[7] = tested on: HOP-92 NSCLC
[8] = tested on: SK-MEL-5 melanoma
[9] = tested on: OVCAR-5 ovarian
[10] = tested on: LOX IMVI melanoma
[11] = tested on: SNB-19 CNS
[12] = tested on: TK-10 renal
[13] = tested on: MDA-MB-231 breast
[14] = tested on: NCI/ADR-RES ovarian
[15] = tested on: U251 CNS
[16] = tested on: OVCAR-3 ovarian
[17] = tested on: T-47D breast
[18] = tested on: NCI-H522 lung
[19] = tested on: MOLT-4 leukemia
[20] = tested on: HCT-116 colon
[21] = tested on: UACC-257 melanoma
[22] = tested on: UO-31 renal
[23] = tested on: SF-539 CNS
[24] = tested on: SF-268 CNS
[25] = tested on: EKVX NSCLC
[26] = tested on: A549 NSCLC
[27] = tested on: OVCAR-4 ovarian
[28] = tested on: HCC-2998 colon
[29] = tested on: SW-620 colon
[30] = tested on: CCRF-CEM leukemia
[31] = tested on: PC-3 prostate
[32] = tested on: NCI-H460 lung
[33] = tested on: HT29 colon
[34] = tested on: DU-145 prostate
[35] = tested on: MDA-MB-435
[36] = tested on: SK-MEL-28 melanoma
[37] = tested on: UACC-62 melanoma
[38] = tested on: SR leukemia
[39] = tested on: OVCAR-8 ovarian
[40] = tested on: MDA-N
[41] = tested on: NCI-H23 lung
[42] = tested on: SF-295 CNS
[43] = tested on: MCF7 breast
[44] = tested on: BT-549 breast
[45] = tested on: K-562 leukemia
[46] = tested on: COLO 205 colon
[47] = tested on: HCT-15 colon
[48] = tested on: HL-60(TB) leukemia
[49] = tested on: HOP-62 NSCLC
[50] = tested on: IGROV1 ovarian
[51] = tested on: ACHN renal
[52] = tested on: MALME-3M melanoma
[53] = tested on: CAKI-1 renal
[54] = tested on: RXF 393 renal
[55] = tested on: NCI-H226 lung
[56] = tested on: A498 renal
[57] = tested on: HS 578T breast
[58] = tested on: SK-MEL-2 melanoma
[59] = tested on: RPMI-8226 leukemia

CC(=O)NC1CC(C(C)(C)NC(C)=O)CC=C1C (stereo unspecified)
> 100 µM: TGI [1] | TGI [2] | TGI [3] | TGI [4] | TGI [5] | TGI [6] | TGI [7] | TGI [8] | TGI [9] | TGI [10] | TGI [11] | TGI [12] | TGI [13] | TGI [14] | TGI [15] | TGI [16] | TGI [17] | TGI [18] | TGI [19] | TGI [20] | TGI [21] | TGI [22] | TGI [23] | TGI [24] | TGI [25] | TGI [26] | TGI [27] | TGI [28] | TGI [29] | TGI [30] | TGI [31] | TGI [32] | TGI [33] | TGI [34] | TGI [35] | TGI [36] | TGI [37] | TGI [38] | TGI [39] | TGI [40] | TGI [41] | TGI [42] | TGI [43] | TGI [44] | TGI [45] | TGI [46] | TGI [47] | TGI [48] | TGI [49] | TGI [50]

C=C1C2CC3CCC2C(OC(=O)c2ccccc2C(=O)O)C13 (stereo unspecified)
> 100 µM: TGI [1] | TGI [2] | TGI [3] | TGI [51] | TGI [4] | TGI [5] | TGI [6] | TGI [7] | TGI [8] | TGI [9] | TGI [10] | TGI [11] | TGI [12] | TGI [13] | TGI [14] | TGI [15] | TGI [52] | TGI [16] | TGI [17] | TGI [18] | TGI [19] | TGI [53] | TGI [54] | TGI [20] | TGI [21] | TGI [22] | TGI [23] | TGI [24] | TGI [25] | TGI [26] | TGI [27] | TGI [28] | TGI [29] | TGI [30] | TGI [31] | TGI [55] | TGI [32] | TGI [33] | TGI [56] | TGI [34] | TGI [35] | TGI [36] | TGI [37] | TGI [38] | TGI [39] | TGI [40] | TGI [41] | TGI [42] | TGI [57] | TGI [45] | TGI [46] | TGI [58] | TGI [47] | TGI [48] | TGI [49] | TGI [50]

CCCCSc1nc(N)c2cn[nH]c2n1
34.8 µM: TGI [20]
36.4 µM: TGI [38]
> 76.8 µM: TGI [11]
35.1 µM: TGI [16]
> 88.6 µM: TGI [10]
30.4 µM: TGI [4]
> 92.3 µM: TGI [1]
70.4 µM: TGI [27]
68 µM: TGI [30]
35 µM: TGI [21]
31 µM: TGI [56]
54.3 µM: TGI [9]
> 62.5 µM: TGI [43]
62.6 µM: TGI [33]
> 100 µM: TGI [45] | TGI [47] | TGI [48] | TGI [50]
> 73.6 µM: TGI [26]
52.6 µM: TGI [17]
30.9 µM: TGI [41]
42.9 µM: TGI [52]
48.8 µM: TGI [46] | TGI [49]
41.8 µM: TGI [31] | TGI [35]
active: GI50 [28] 0.22 µM
> 70 µM: TGI [29]
> 78 µM: TGI [19]
> 59.4 µM: TGI [24]
33.2 µM: TGI [8]
> 64.1 µM: TGI [15]
40.8 µM: TGI [37]
28.5 µM: TGI [5]
39.1 µM: TGI [23]
63.2 µM: TGI [57]
38.8 µM: TGI [42]
44.4 µM: TGI [53]
29.4 µM: TGI [12]
> 60.4 µM: TGI [39]
> 76.1 µM: TGI [51]
49.6 µM: TGI [18]
37.4 µM: TGI [14]
inactive: GI50 [1] 37 µM | GI50 [2] 26.4 µM | GI50 [3] 21.2 µM | GI50 [51] 24.8 µM | GI50 [4] 15 µM | GI50 [5] 12.8 µM | GI50 [6] 13.3 µM | GI50 [8] 15.5 µM | GI50 [9] 16.6 µM | GI50 [10] 29.9 µM | GI50 [11] 37.3 µM | GI50 [12] 7.99 µM | GI50 [13] 15.5 µM | GI50 [14] 16.3 µM | GI50 [15] 28.1 µM | GI50 [52] 24.6 µM | GI50 [16] 17.1 µM | GI50 [17] 8.28 µM | GI50 [18] 20.7 µM | GI50 [19] 26.3 µM | GI50 [53] 18.2 µM | GI50 [54] 9.25 µM | GI50 [20] 14.1 µM | GI50 [21] 19.4 µM | GI50 [22] 26.2 µM | GI50 [23] 18.3 µM | GI50 [24] 22.2 µM | GI50 [25] 15.6 µM | GI50 [26] 27.6 µM | GI50 [27] 23.6 µM | GI50 [29] 29.1 µM | GI50 [30] 23.6 µM | GI50 [31] 17.9 µM | GI50 [59] 17.1 µM | GI50 [55] 15.6 µM | GI50 [32] 19.6 µM | GI50 [33] 25.5 µM | GI50 [56] 15.9 µM | GI50 [34] 23.9 µM | GI50 [35] 21 µM | GI50 [36] 20.3 µM | GI50 [37] 16.8 µM | GI50 [38] 14.1 µM | GI50 [39] 23.2 µM | GI50 [41] 13.8 µM | GI50 [42] 20.8 µM | GI50 [43] 23.4 µM | GI50 [57] 22 µM | GI50 [44] 20.1 µM | GI50 [45] 29.7 µM | GI50 [46] 19.8 µM | GI50 [58] 22.2 µM | GI50 [47] 32.9 µM | GI50 [48] 23.6 µM | GI50 [49] 22.5 µM | GI50 [50] 29.5 µM
36.6 µM: TGI [55]
72 µM: TGI [34]
43.2 µM: TGI [44]
51.1 µM: TGI [32]
> 44 µM: TGI [54]
69 µM: TGI [2]
35.2 µM: TGI [13]
2.39 µM: TGI [7]
29.5 µM: TGI [6]
57.3 µM: TGI [3] | TGI [25]
2.26 µM: TGI [28]
37.9 µM: TGI [59]
40.3 µM: TGI [36]
> 80.4 µM: TGI [22]
> 64.6 µM: TGI [58]
